Species on record: Rattus norvegicus
Assay: Open TG-GATES - Regimen: Single
Type: toxicity, organism-based, Sprague-Dawley
Set-up: regimen Single, gender Male, age 6 weeks
Settings: in vivo, po, route gavage; for APTT / Bas / Eos / Fbg / Hb / Ht / Lym / MCH / MCHC / MCV / Mono / Neu / PT / Plat / RBC / Ret / WBC: tissue Blood; for KIDNEY_L / KIDNEY_R / KIDNEY_TOTAL: tissue Kidney; for LIVER: tissue Liver; for A/G / ALP / ALT / AST / BUN / CRE / Ca / Cl / DBIL / GLC / IP / K / LDH / Na / PL / RALB / TBIL / TC / TG / TP / gamma-GTP: tissue Plasma
[1] = 100 mg/kg, 3 h, dose level Middle
[2] = 100 mg/kg, 6 h, dose level Middle
[3] = 100 mg/kg, 9 h, dose level Middle
[4] = 100 mg/kg, 24 h, dose level Middle
[5] = 300 mg/kg, 3 h, dose level High
[6] = 300 mg/kg, 6 h, dose level High
[7] = 300 mg/kg, 9 h, dose level High
[8] = 300 mg/kg, 24 h, dose level High

CC[C@H]1[C@@H]2C[C@H]3[C@@H]4N(C)c5ccccc5[C@]45C[C@@H]([C@@H]2[C@H]5O)N3[C@@H]1O [AJMALINE]
TERMINAL_BW [1]: 195.2 g
APTT [1]: 16.3 s
Bas [1]: 0%
Eos [1]: 0.6%
Fbg [1]: 201.2 mg/dL
Hb [1]: 13.1 g/dL
Ht [1]: 40.1%
Lym [1]: 80.2%
MCH [1]: 21.8 pg
MCHC [1]: 32.7%
MCV [1]: 66.7 fL
Mono [1]: 6.8%
Neu [1]: 12.4%
PT [1]: 11.8 s
Plat [1]: 115.9 x10_4/uL
RBC [1]: 602.8 x10_4/ul
Ret [1]: 12.1%
WBC [1]: 109.1 x10_2/uL
KIDNEY_L [1]: 0.9 g
KIDNEY_R [1]: 0.9 g
KIDNEY_TOTAL [1]: 1.8 g
LIVER [1]: 9.6 g
A/G [1]: 2.4
ALP [1]: 824.8 IU/L
ALT [1]: 33.4 IU/L
AST [1]: 64.6 IU/L
BUN [1]: 11.6 mg/dL
CRE [1]: 0.4 mg/dL
Ca [1]: 11.1 mg/dL
Cl [1]: 103 meq/L
DBIL [1]: 0.052 mg/dL
GLC [1]: 198.4 mg/dL
IP [1]: 9.1 mg/dL
K [1]: 4.5 meq/L
LDH [1]: 128 IU/L
Na [1]: 138.2 meq/L
PL [1]: 140.4 mg/dL
RALB [1]: 3.6 g/dL
TBIL [1]: 0.4 mg/dL
TC [1]: 75 mg/dL
TG [1]: 65.6 mg/dL
TP [1]: 5.2 g/dL
gamma-GTP [1]: 1.6 IU/L
TERMINAL_BW [2]: 187.8 g
APTT [2]: 17 s
Bas [2]: 0%
Eos [2]: 0.6%
Fbg [2]: 193.4 mg/dL
Hb [2]: 12.9 g/dL
Ht [2]: 39%
Lym [2]: 84.2%
MCH [2]: 21.8 pg
MCHC [2]: 33.1%
MCV [2]: 66 fL
Mono [2]: 5.8%
Neu [2]: 9%
PT [2]: 12.1 s
Plat [2]: 109.9 x10_4/uL
RBC [2]: 591.4 x10_4/ul
Ret [2]: 11.2%
WBC [2]: 76.5 x10_2/uL
KIDNEY_L [2]: 0.9 g
KIDNEY_R [2]: 0.9 g
KIDNEY_TOTAL [2]: 1.8 g
LIVER [2]: 8.5 g
A/G [2]: 2.2
ALP [2]: 849 IU/L
ALT [2]: 31.6 IU/L
AST [2]: 67.8 IU/L
BUN [2]: 9 mg/dL
CRE [2]: 0.5 mg/dL
Ca [2]: 11 mg/dL
Cl [2]: 102.6 meq/L
DBIL [2]: 0.044 mg/dL
GLC [2]: 191 mg/dL
IP [2]: 9.9 mg/dL
K [2]: 4.6 meq/L
LDH [2]: 99.2 IU/L
Na [2]: 138.4 meq/L
PL [2]: 140.2 mg/dL
RALB [2]: 3.5 g/dL
TBIL [2]: 0.4 mg/dL
TC [2]: 83.6 mg/dL
TG [2]: 60.4 mg/dL
TP [2]: 5.2 g/dL
gamma-GTP [2]: 1 IU/L
TERMINAL_BW [3]: 191.7 g
APTT [3]: 16.7 s
Bas [3]: 0%
Eos [3]: 1.2%
Fbg [3]: 206 mg/dL
Hb [3]: 12.9 g/dL
Ht [3]: 39.2%
Lym [3]: 75%
MCH [3]: 21.6 pg
MCHC [3]: 32.8%
MCV [3]: 65.6 fL
Mono [3]: 7.8%
Neu [3]: 16.2%
PT [3]: 11.9 s
Plat [3]: 115.9 x10_4/uL
RBC [3]: 597 x10_4/ul
Ret [3]: 9.5%
WBC [3]: 88.2 x10_2/uL
KIDNEY_L [3]: 0.9 g
KIDNEY_R [3]: 1 g
KIDNEY_TOTAL [3]: 1.9 g
LIVER [3]: 8.1 g
A/G [3]: 2.6
ALP [3]: 786.2 IU/L
ALT [3]: 33 IU/L
AST [3]: 67.2 IU/L
BUN [3]: 11 mg/dL
CRE [3]: 0.5 mg/dL
Ca [3]: 10.3 mg/dL
Cl [3]: 104.6 meq/L
DBIL [3]: 0.066 mg/dL
GLC [3]: 190.6 mg/dL
IP [3]: 10.6 mg/dL
K [3]: 4.8 meq/L
LDH [3]: 107 IU/L
Na [3]: 138 meq/L
PL [3]: 138 mg/dL
RALB [3]: 3.7 g/dL
TBIL [3]: 0.3 mg/dL
TC [3]: 79.8 mg/dL
TG [3]: 46 mg/dL
TP [3]: 5.2 g/dL
gamma-GTP [3]: 0.2 IU/L
TERMINAL_BW [4]: 205.6 g
APTT [4]: 16.3 s
Bas [4]: 0%
Eos [4]: 1%
Fbg [4]: 205.6 mg/dL
Hb [4]: 12.7 g/dL
Ht [4]: 38.5%
Lym [4]: 81.2%
MCH [4]: 21.8 pg
MCHC [4]: 33.1%
MCV [4]: 65.9 fL
Mono [4]: 5.8%
Neu [4]: 12.4%
PT [4]: 11.6 s
Plat [4]: 106.5 x10_4/uL
RBC [4]: 585.2 x10_4/ul
Ret [4]: 11.1%
WBC [4]: 105.9 x10_2/uL
KIDNEY_L [4]: 1 g
KIDNEY_R [4]: 1 g
KIDNEY_TOTAL [4]: 2 g
LIVER [4]: 10.2 g
A/G [4]: 2.2
ALP [4]: 869.2 IU/L
ALT [4]: 39.4 IU/L
AST [4]: 67.2 IU/L
BUN [4]: 17.4 mg/dL
CRE [4]: 0.6 mg/dL
Ca [4]: 10.9 mg/dL
Cl [4]: 102.2 meq/L
DBIL [4]: 0.03 mg/dL
GLC [4]: 204.2 mg/dL
IP [4]: 8.4 mg/dL
K [4]: 4.5 meq/L
LDH [4]: 105.2 IU/L
Na [4]: 139.8 meq/L
PL [4]: 142.6 mg/dL
RALB [4]: 3.7 g/dL
TBIL [4]: 0.4 mg/dL
TC [4]: 79.4 mg/dL
TG [4]: 81.6 mg/dL
TP [4]: 5.4 g/dL
gamma-GTP [4]: 0.8 IU/L
TERMINAL_BW [5]: 194.9 g
APTT [5]: 17 s
Bas [5]: 0%
Eos [5]: 0.6%
Fbg [5]: 201.8 mg/dL
Hb [5]: 13 g/dL
Ht [5]: 39.5%
Lym [5]: 80.6%
MCH [5]: 21.3 pg
MCHC [5]: 32.8%
MCV [5]: 64.8 fL
Mono [5]: 6.4%
Neu [5]: 12.6%
PT [5]: 11.9 s
Plat [5]: 106.2 x10_4/uL
RBC [5]: 611.2 x10_4/ul
Ret [5]: 11.5%
WBC [5]: 94.5 x10_2/uL
KIDNEY_L [5]: 0.9 g
KIDNEY_R [5]: 0.9 g
KIDNEY_TOTAL [5]: 1.9 g
LIVER [5]: 9.2 g
A/G [5]: 2.3
ALP [5]: 955.4 IU/L
ALT [5]: 34 IU/L
AST [5]: 64.6 IU/L
BUN [5]: 13.2 mg/dL
CRE [5]: 0.4 mg/dL
Ca [5]: 10.6 mg/dL
Cl [5]: 103.6 meq/L
DBIL [5]: 0.018 mg/dL
GLC [5]: 184.6 mg/dL
IP [5]: 8.9 mg/dL
K [5]: 4.4 meq/L
LDH [5]: 108.4 IU/L
Na [5]: 137.8 meq/L
PL [5]: 135 mg/dL
RALB [5]: 3.7 g/dL
TBIL [5]: 0.4 mg/dL
TC [5]: 71.4 mg/dL
TG [5]: 57.8 mg/dL
TP [5]: 5.3 g/dL
gamma-GTP [5]: 1 IU/L
TERMINAL_BW [6]: 195.8 g
APTT [6]: 17.3 s
Bas [6]: 0%
Eos [6]: 1.2%
Fbg [6]: 211.8 mg/dL
Hb [6]: 13.1 g/dL
Ht [6]: 40%
Lym [6]: 69.2%
MCH [6]: 21.6 pg
MCHC [6]: 32.7%
MCV [6]: 66 fL
Mono [6]: 8.8%
Neu [6]: 20.6%
PT [6]: 11.8 s
Plat [6]: 109.7 x10_4/uL
RBC [6]: 607 x10_4/ul
Ret [6]: 11.3%
WBC [6]: 82.2 x10_2/uL
KIDNEY_L [6]: 0.9 g
KIDNEY_R [6]: 1 g
KIDNEY_TOTAL [6]: 1.9 g
LIVER [6]: 9 g
A/G [6]: 2.1
ALP [6]: 795 IU/L
ALT [6]: 32.2 IU/L
AST [6]: 64.6 IU/L
BUN [6]: 10.4 mg/dL
CRE [6]: 0.5 mg/dL
Ca [6]: 10.8 mg/dL
Cl [6]: 102.6 meq/L
DBIL [6]: 0.062 mg/dL
GLC [6]: 184.6 mg/dL
IP [6]: 9.2 mg/dL
K [6]: 4.6 meq/L
LDH [6]: 93.2 IU/L
Na [6]: 137.2 meq/L
PL [6]: 142.6 mg/dL
RALB [6]: 3.7 g/dL
TBIL [6]: 0.4 mg/dL
TC [6]: 77.8 mg/dL
TG [6]: 40.2 mg/dL
TP [6]: 5.4 g/dL
gamma-GTP [6]: 1.8 IU/L
TERMINAL_BW [7]: 189 g
APTT [7]: 16.4 s
Bas [7]: 0%
Eos [7]: 1.4%
Fbg [7]: 215.8 mg/dL
Hb [7]: 13.2 g/dL
Ht [7]: 40.1%
Lym [7]: 72.8%
MCH [7]: 21.2 pg
MCHC [7]: 32.9%
MCV [7]: 64.4 fL
Mono [7]: 8%
Neu [7]: 18.4%
PT [7]: 11.9 s
Plat [7]: 117.8 x10_4/uL
RBC [7]: 623.8 x10_4/ul
Ret [7]: 11.7%
WBC [7]: 70.8 x10_2/uL
KIDNEY_L [7]: 0.9 g
KIDNEY_R [7]: 0.9 g
KIDNEY_TOTAL [7]: 1.7 g
LIVER [7]: 8.5 g
A/G [7]: 2.3
ALP [7]: 780.6 IU/L
ALT [7]: 31 IU/L
AST [7]: 62.8 IU/L
BUN [7]: 13.2 mg/dL
CRE [7]: 0.6 mg/dL
Ca [7]: 10.5 mg/dL
Cl [7]: 103.6 meq/L
DBIL [7]: 0.078 mg/dL
GLC [7]: 178 mg/dL
IP [7]: 10.1 mg/dL
K [7]: 5 meq/L
LDH [7]: 113.8 IU/L
Na [7]: 138.4 meq/L
PL [7]: 146.4 mg/dL
RALB [7]: 3.8 g/dL
TBIL [7]: 0.4 mg/dL
TC [7]: 87.8 mg/dL
TG [7]: 50 mg/dL
TP [7]: 5.4 g/dL
gamma-GTP [7]: 1 IU/L
TERMINAL_BW [8]: 206.4 g
APTT [8]: 16 s
Bas [8]: 0%
Eos [8]: 1%
Fbg [8]: 199.4 mg/dL
Hb [8]: 13 g/dL
Ht [8]: 39.3%
Lym [8]: 79.8%
MCH [8]: 21.6 pg
MCHC [8]: 33%
MCV [8]: 65.5 fL
Mono [8]: 6.8%
Neu [8]: 12.6%
PT [8]: 11.8 s
Plat [8]: 108 x10_4/uL
RBC [8]: 599.6 x10_4/ul
Ret [8]: 9.9%
WBC [8]: 77.5 x10_2/uL
KIDNEY_L [8]: 1 g
KIDNEY_R [8]: 1 g
KIDNEY_TOTAL [8]: 1.9 g
LIVER [8]: 9.9 g
A/G [8]: 2.2
ALP [8]: 860.6 IU/L
ALT [8]: 37.4 IU/L
AST [8]: 69 IU/L
BUN [8]: 18 mg/dL
CRE [8]: 0.6 mg/dL
Ca [8]: 11 mg/dL
Cl [8]: 101.4 meq/L
DBIL [8]: 0.03 mg/dL
GLC [8]: 196.4 mg/dL
IP [8]: 9.1 mg/dL
K [8]: 4.6 meq/L
LDH [8]: 109.4 IU/L
Na [8]: 139.4 meq/L
PL [8]: 149.4 mg/dL
RALB [8]: 3.7 g/dL
TBIL [8]: 0.4 mg/dL
TC [8]: 83.8 mg/dL
TG [8]: 99 mg/dL
TP [8]: 5.3 g/dL
gamma-GTP [8]: 0.8 IU/L

Source: ChEMBL document CHEMBL3885861, “Open TG-GATES”
